Earlier results, collected in patent publication US20220304972A1, “COMBINATION THERAPY AND BIOMARKER INDICATING EFFICACY THEREOF” (Sumitomo Dainippon Pharma Co., Ltd., priority 2019, published 2022).
Where two headings read alike, the source gives them in different places.

System: CRC patients

Substance: atezolizumab: anti-PD-L1 antibody, binds to PD-L1
- ORR (MSS CRC, N=90 (2/90), Bendell et al. 2018, NCT02788279): 2.2%

Substance: nivolumab: anti-PD-1 antibody, binds to PD-1
- ORR (CRC, N=14 (1/14), Brahmer 2010): 7
- ORR (Refractory CRC, N=19, Topialan et al. 2012, NCT00730639): 0

Substance: pembrolizumab: anti-PD-1 antibody, binds to PD-1
- ORR (MSS CRC, N=18, Le et al. 2015, NCT01876511): 0
- ORR (PD-1 positive MSS CRC, N=22, O' Neil et al. 2017, NCT02054806): 0
